The results in this text go back to patent US11161830B2, “4-pyridone compound or salt thereof, and pharmaceutical composition and formulation including same” (priority 2017, dated 2021).

Where two headings read alike, the source gives them in different places.

One assay has as its system HBV (genotype AeUS). Description: Test Example 2-1: anti-HBV assay in PXB-cells (fresh human hepatocytes). The class given is cell-based, hepatitis B virus. To be noted: PXB-cells infected with HBV genotype AeUS, culture supernatant on day 32 post infection. The method, then: Using fresh human hepatocytes (PXB-cells, manufactured by PhenixBio Co., Ltd.) collected from a PXB mouse (a chimeric mouse with human hepatocytes), the anti-HBV activity of the representative compounds was evaluated in the following procedure.
(§1) The following was used as a medium:
DMEM (manufactured by Sigma)+0.25 μg/mL insulin (manufactured by Wako)+1% penicillin/streptomycin. (manufactured by Sigma)+20 mmol/L HEPES (manufactured by Sigma)+15 μg/mL L-proline (manufactured by Sigma)+50 nmol/L dexamethasone (manufactured by Sigma)+5 ng/mL EGF (manufactured by Peprotech)+0.1 mmol/L ascorbic acid 2-phosphate (manufactured by Wako)+10% FBS+2% DMSO
Each of the test compounds) was further added to the medium to prepare a test solution containing each of the test compounds at various concentrations.
(1) PXB-cells seeded at a seeding density of 2.1×10^5 cells/cm^2 in a 96-well microliter plate were incubated in a 5% CO2 incubator at 37° C. until a day on which the cells were infected.
(2) HBV (genotype AeUS) derived from a PXB mouse serum was suspended in the medium containing 4% PEG-8000, and added to the plate of (1) at about 10 copies/cell such that the PXB cells were infected (100 μL/well), and the plate was incubated in a 5% CO2 incubator at 37° C. for 1 day.
(3) The culture supernatant on day 1 post infection was removed and the cells were washed three times with DMEM containing 10% FBS and 1% penicillin/streptomycin. Then, the medium was added to the plate (100 μL/well) and the plate was incubated in a 5% CO2 incubator at 37° C. for 1 day.
(4) The culture supernatant on day 2 post infection was removed and the cells were washed three times with DMEM containing 10% FBS and 1% penicillin/streptomycin. Then, the medium was added to the plate (100 μL/well) and the plate was incubated in a 5% CO2 incubator at 37° C. for 5 days.
(5) The culture supernatant on day 7 post infection was removed, the medium was added to the plate (100 μL/well), and the plate was incubated in a 5% CO2 incubator at 37° C. for 5 days.
(6) The culture supernatant on day 12 post infection was removed, the medium was added to the plate (100 μL/well), and the plate was incubated in a 5% CO2 incubator at 37° C. for 5 days.
(7) The culture supernatant on day 17 post infection was removed, the test solution was added to the plate (100 μL/well), and the plate was incubated in a 5% CO2 incubator at 37° C. for 5 days. As a control without the compound added, the medium was added to the plate (100 μL/well) and the plate was incubated in a 5% CO2 incubator at 37° C. for 5 days.
(8) The culture supernatant on day 22 post infection was removed, the test solution was added to the plate (100 μL/well), and the plate was incubated in a 5% CO2 incubator at 37° C. for 5 days. As a control without the compound added, the medium was added to the plate (100 μL/well) and the plate was incubated in a 5% CO2 incubator at 37° C. for 5 days.
(9) The culture supernatant on day 27 post infection was removed, the test solution was added to the plate (100 μL/well), and the plate was incubated in a 5% CO2 incubator at 37° C. for 5 days. As a control without the compound added, the medium was added to the plate (100 μL/well) and the plate was incubated in a 5% CO2 incubator at 37° C. for 5 days.
(10) The culture supernatant on day 32 post infection was collected.
(11) The collected culture supernatant on day 32 post infection was purified with a QIAamp (registered trademark) DNA Blood Mini Kit (manufactured by QIAGEN). The amount of HBV-DNA in the obtained solution was absolutely quantified by a real-time PCR method. In addition, the amount of HBsAg in the culture supernatant was absolutely quantified by chemiluminescent enzyme immunoassay using Lumipulse (registered trademark) HBsAg-HQ (manufactured by Fujirebio Inc.). A relative viral load (%) with respect to a control without the compound added was each calculated. […]

In a further assay the test system is HBV. Description: Test Example 1-1: anti-HBV assay in HepG2.2.15 cells (test solution 200 μL/well). The class given is cell-based, hepatitis B virus. The following applies: culture supernatant. The method, then:
Using HepG2.2.15 cells (Proc. Natl. Acad. Sci. USA, 84, 1005-1009, 1987) which have an HBV genome introduced into a hepatoblastoma cell line, HepG2, and persistently produce a virus, the anti-HBV activity of the representative compounds was evaluated in the following procedure.
as §1
DMEM/F-12, GlutaMAX (manufactured by Invitrogen)+5 μg/mL insulin (manufactured by Wako)+1% penicillin/streptomycin (manufactured by Sigma)+10 mmol/L HEPES (manufactured by Sigma)+50 μmol/L hydrocortisone (manufactured by Sigma)+10% FBS
A mixture of a test compound with dimethyl sulfoxide (DMSO) was further added to the medium to obtain a final concentration of DMSO of 0.25% (v/v), and thus, test solutions containing the test compound at various concentrations were prepared. In addition, a test solution obtained by adding DMSO alone to the medium to obtain a final concentration of 0.25% (v/v) was prepared as a control without addition of a drug.
(1) The HepG2.2.15 cells were suspended in the medium to prepare a. HepG2.2.15 cell suspension at 4×10^5 cells/mL. The suspension was seeded in a 96-well microtiter plate (100 μL/well) and the plate was incubated in a 5% CO2 incubator at 37° C. for 2 days.
(2) The culture supernatant was removed and the cells were washed twice with PBS (−) (100 μL/well).
(3) The test solution (200 μL/well) was added to the plate of (2) and the plate was incubated in a 5% CO2 incubator at 37° C. for 4 days.
(4) The culture supernatant was removed, the test solution (200 μL/well) was added again to the plate, and the plate was incubated in a 5% CO2 incubator at 37° C. for 3 days.
(5) The culture supernatant was collected and treated with a mixture of Buffer AL (manufactured by QIAGEN) and Proteinase K (manufactured by Invitrogen). The amount of DNA of HBV (HBV-DNA) in the obtained solution was absolutely quantified by a real-time PCR method. In addition, HBsAg (hepatitis B surface antigen) in the culture supernatant was absolutely quantified by chemiluminescent enzyme immunoassay using Lumipulse (registered trademark) HBsAg-HQ (manufactured by Fujirebio Inc.). The relative viral load (%) of a well with the compound added to a well without the compound added was calculated. An IC50 of the compound was calculated using a FORECAST function (linear regression method) of Microsoft Office Excel 2007 by plotting the logarithm of the concentration against the relative viral load as a real number.
The IC50 of HBV-DNA was defined as a concentration (or a logarithm dilution of the culture supernatant) of the compound, in which the amount of HBV-DNA is reduced by 50% as compared a control without the compound added.
In addition, the IC50 of HBsAg was defined as a concentration (or a logarithm dilution of the culture supernatant) of the compound, in which the amount of HBsAg is reduced by 50% as compared a control without the compound added.

The mark [1] stands for this setting: Hepatitis B virus, Hepatocyte, read-out: IC50 HBV-DNA.
The mark [2] stands for this setting: Hepatitis B virus, Hepatocyte, read-out: IC50 HBsAg.
[3] abbreviates: Hepatitis B virus, read-out: IC50 HBV-DNA.
The mark [4] stands for this setting: Hepatitis B virus, read-out: IC50 HBsAg.

By IC50 is commonly meant the concentration that inhibits the measured activity by half. Regarding `Cc1nc2ccc(-n3cc(C(=O)O)c(=O)cc3-c3ccc(N4CCCC4)c(C#N)c3)cc2s1` [Example 16, 6-(3-Cyano-4-(pyrrolidin-1-yl)phenyl)-1-(2-methylbenzo[d]thiazol-6-yl)-4-oxo-1,4-dihydropyridine-3-carboxylic acid], the IC50 in the assay on HBV (genotype AeUS) (setting [1]) is 470 nM; in the assay with HBV (genotype AeUS) (setting [2]) it was 190 nM; in the assay on HBV (setting [3]), 18 nM; in the assay with HBV (setting [4]) it was 15 nM.

For `O=C(O)c1cn(-c2ccc3nc(NCc4ncccn4)sc3c2)c(-c2ccc(N3CCCC3)cc2)cc1=O` [Example 3-13, 4-oxo-1-(2-((pyrimidin-2-ylmethyl)amino)benzo[d]thiazol-6-yl)-6-(4-(pyrrolidin-1-yl)phenyl)-1,4-dihydropyridine-3-carboxylic acid], the IC50 is less than 8 nM with HBV (genotype AeUS) (setting [1]), 39 nM in the assay with HBV (genotype AeUS) (setting [2]), 3.9 nM with HBV (setting [3]) and 5.1 nM in the assay on HBV (setting [4]).

Take `COCCN(CCOC)c1nc2ccc(-n3cc(C(=O)O)c(=O)cc3-c3ccc(N4CC[C@@H](OC)C4)c(Cl)c3)cc2s1` [Example 12-1, (R)-1-(2-(bis(2-methoxyethyl)amino)benzo[d]thiazol-6-yl)-6-(3-chloro-4-(3-methoxypyrrolidin-1-yl)phenyl)-4-oxo-1,4-dihydropyridine-3-carboxylic acid]: the results for the IC50 with HBV (genotype AeUS) (setting [1]) and with HBV (genotype AeUS) (setting [2]) were less than 8 nM and 11 nM, respectively.

`COC[C@H]1CCCN1c1nc2ccc(-n3cc(C(=O)O)c(=O)cc3-c3ccc(N4CCCC4)c(Br)c3)cc2s1` [Example 5-6, (R)-6-(3-bromo-4-(pyrrolidin-1-yl)phenyl)-1-(2-(2-(methoxymethyl)pyrrolidin-1-yl)benzo[d]thiazol-6-yl)-4-oxo-1,4-dihydropyridine-3-carboxylic acid]: the 50% inhibitory concentration (IC50) is 41 nM in the assay on HBV (genotype AeUS) (setting [1]) and 62 nM in the assay with HBV (genotype AeUS) (setting [2]).

As for `O=C(O)c1cn(-c2ccc3nc(N4CCCC4)sc3c2)c(-c2ccc(N3CCCC3)cc2)cc1=O` [Example 3-3, 4-oxo-1-(2-(pyrrolidin-1-yl)benzo[d]thiazol-6-yl)-6-(4-(pyrrolidin-1-yl)phenyl)-1,4-dihydropyridine-3-carboxylic acid], the IC50 in the assay with HBV (genotype AeUS) (setting [1]) turned out to be 52 nM; in the assay with HBV (genotype AeUS) (setting [2]), 77 nM; with HBV (setting [3]), 2 nM; in the assay on HBV (setting [4]) it was 5 nM.

Take “1-(2-morpholinebenzo[d]thiazol-6-yl)-4-oxo-6-(4-(pyrrolidin-1-yl)phenyl)-1,4-dihydropyridine-3-carboxylic acid [Example 3-4]”: the IC50 with HBV (genotype AeUS) (read-out: IC50 HBV-DNA) turned out to be 22 nM; with HBV (genotype AeUS) (read-out: IC50 HBsAg), 14 nM; in the assay with HBV (read-out: IC50 HBV-DNA) it was 5.5 nM; in the assay with HBV (read-out: IC50 HBsAg) it was 5.9 nM.

For `COC[C@H]1CCCN1c1nc2ccc(-n3cc(C(=O)O)c(=O)cc3-c3ccc(N4CCCC4)c(Cl)c3)cc2s1` [Example 6-3, (R)-6-(3-chloro-4-(pyrrolidin-1-yl)phenyl)-1-(2-(2-(methoxymethyl)pyrrolidin-1-yl)benzo[d]thiazol-6-yl)-4-oxo-1,4-dihydropyridine-3-carboxylic acid], the IC50 with HBV (genotype AeUS) (setting [1]) is 30 nM; with HBV (genotype AeUS) (setting [2]), 57 nM.

Turning to `CCN1CCN(c2nc3ccc(-n4cc(C(=O)O)c(=O)cc4-c4ccc(N5CC[C@@H](OC)C5)cc4)cc3s2)CC1` [Example 10-4, (R)-1-(2-(4-ethylpiperazin-1-yl)benzo[d]thiazol-6-yl)-6-(4-(3-methoxypyrrolidin-1-yl)phenyl)-4-oxo-1,4-dihydropyridine-3-carboxylic acid], the IC50 turned out to be 61 nM in the assay with HBV (genotype AeUS) (setting [1]) and 78 nM in the assay on HBV (genotype AeUS) (setting [2]).

For `O=C(O)c1cn(-c2ccc3ncsc3c2)c(-c2ccc(N3CCCC3)cc2)cc1=O` [Example 3-1, 1-(benzo[d]thiazol-6-yl)-4-oxo-6-(4-(pyrrolidin-1-yl)phenyl)-1,4-dihydropyridine-3-carboxylic acid], the concentration for half-maximal inhibition (IC50) in the assay with HBV (genotype AeUS) (setting [1]) was found to be 230 nM; with HBV (genotype AeUS) (setting [2]) it was 540 nM; in the assay with HBV (setting [3]) it was 27 nM; with HBV (setting [4]), 21 nM.

`COCCN1CCN(c2nc3ccc(-n4cc(C(=O)O)c(=O)cc4-c4ccc(N5CC[C@@H](OC)C5)c(Cl)c4)cc3s2)CC1` [Example 12-2, (R)-6-(3-chloro-4-(3-methoxypyrrolidin-1-yl)phenyl)-1-(2-(4-(2-methoxyethyl)piperazin-1-yl)benzo[d]thiazol-6-yl)-4-oxo-1,4-dihydropyridine-3-carboxylic acid]: the IC50 with HBV (genotype AeUS) (setting [1]) worked out at 28 nM; with HBV (genotype AeUS) (setting [2]) it was 42 nM.

Take `COCCN(CCOC)c1nc2ccc(-n3cc(C(=O)O)c(=O)cc3-c3ccc(N4CCCC4)c(Cl)c3)cc2s1` [Example 6-2]: the IC50 is 25 nM in the assay with HBV (genotype AeUS) (read-out: IC50 HBV-DNA) and 81 nM in the assay on HBV (genotype AeUS) (read-out: IC50 HBsAg).

`COCCN(CCOC)c1nc2ccc(-n3cc(C(=O)O)c(=O)cc3-c3ccc(N4CC[C@@H](OC)C4)cc3)cc2s1` [Example 10-3]: the IC50 came out at 47 nM in the assay on HBV (genotype AeUS) (read-out: IC50 HBV-DNA) and 56 nM with HBV (genotype AeUS) (read-out: IC50 HBsAg).
